Data reported in patent publication US12263155B2, “Combinations of monoamine oxidase inhibitors and serotonin receptor agonists and their therapeutic use” (Remedi, Inc., priority 2022, dated 2025).

What was measured:
[1] = 10, 20 and 40 mg twice daily for 14 days, healthy volunteers
Method: Methods: The study was a Phase I, single-center, randomized, parallel-group, multiple-dose, placebo-controlled, pharmacodynamic, pharmacokinetic and safety study in healthy volunteers. To obtain 24 enrolled subjects, screening procedures and inclusion/exclusion criteria were evaluated for 54 subjects during a variable screening period of up to 28 days. Once enrolled, subjects were randomized to either CX157 10 mg, 20 mg or 40 mg or matching placebo administered twice daily for 14 consecutive days.

[2] = Phase I modified release tablets BID safety; type: in vivo, human; conditions: 125 mg and 175 mg BID, 7 days each
Method: Methods: A total of 20 Subjects (16 on CX157 and 4 on placebo) were dosed with CX157 Modified Release Tablets, 125 mg BID (total daily dose of 250 mg) or placebo in Period 1 for 7 days. Of the 20 subjects, 19 continued in Period 2 of the study where they received CX157 Modified Release Tablets, 175 mg BID (total daily dose of 350 mg) or placebo in the fed state for 7 days. Subjects who were randomized to CX157 125 mg BID in Period 1 received CX157 175 mg BID in Period 2, after a washout of 7 days. Subjects randomized to placebo in Period 1 received placebo in Period 2, after a washout of 7 days. Blood samples for PK analysis were collected during both periods of the study.

[3] = Phase 1 single dose escalation pharmacokinetics; conditions: for Clast / Cmax/Dose / Tlast / % AUCextrap / AUCinf/Dose / kel / AUC(0-t): mean; for Cmax / Tmax / concentration at 24 h / AUC(0-t) / AUC(0-inf) / CL/F / Vd/F / half-life: male, human, plasma, po
Method: Methods: The trial was a Phase 1, single center, double-blind, placebo-controlled, sequential group, acute dose escalation study of the safety and pharmacokinetics of seven (7) CX157 dose levels in healthy male volunteers. Each of the seven (7) dose groups consisted of six (6) subjects, with the exception of cohort 2 (CX157 10 mg or placebo) which enrolled only five (5) subjects. Within each dose group, four (4) subjects were randomized to CX157 and two (2) subjects to placebo. Subjects were normal healthy volunteers confined to the study center for approximately 4 days, beginning approximately 16 hours before exposure to study drug and ending approximately 48 hours after exposure to study drug. Safety and tolerability was assessed for each dose group by the Principal Investigator before advancing to the next scheduled dose group. CX157 was administered as a fully solubilized microemulsion in Labrasol™
Plasma samples for the pharmacokinetic analysis of CX157 were obtained at predose (30 minutes prior to dosing), 10, 20, 30, 60 and 90 minutes, 2, 4, 8, 12, 16, 24, 36 and 48 hours after dosing. […] FIG. 11 details the plasma concentrations of CX157 (in ng/mL) of subjects for each of the seven dose groups, wherein the dosage amounts of CX157 administered to the subjects were 5 mg, 10 mg, 15 mg, 20 mg, 40 mg, 80 mg, and 120 mg.
Formulation: Each natural/transparent Licaps® size 0 hard gelatin capsule contains 5 mg or 10 mg CX157 in Labrasol™; each capsule is banded with a green gelatin band that is comprised of gelatin NF and polysorbate-80 NF. CX157 Liquid Filled Capsules are packaged in white, opaque, high density polyethylene (HDPE) bottles with screw-top polypropylene child resistant caps. Each bottle contains 30 capsules per bottle. CX157 Liquid Filled Capsules, 5 mg and 10 mg are stored long-term at controlled room temperature conditions [i15° C. to 30° C. (59° F. to 86° F.)].

[4] = healthy males, single oral 5 mg
[5] = healthy males, single oral 10 mg
[6] = healthy males, single oral 15 mg
[7] = healthy males, single oral 20 mg
[8] = healthy males, single oral 40 mg
[9] = healthy males, single oral 80 mg

## O=S1(=O)c2ccc(F)cc2Oc2cc(OCC(F)(F)F)ccc21 [CX157, 3-fluoro-7(2,2,2-trifluorethoxy)phenoxathiine-10,10-dioxide]
[1]
  safety and tolerability: generally safe and well tolerated
[2]
  tolerability: well tolerated
[3]; [4]
  Clast: 0.15 ng/mL
  Cmax/Dose: 87
  Tlast: 17 h
[3]; [5]
  % AUCextrap: 6.2%
  AUCinf/Dose: 906
  Clast: 0.2 ng/mL
  Cmax/Dose: 182
  Tlast: 40 h
  kel: 0.0371 h⁻¹
[3]; [6]
  % AUCextrap: 5%
  AUCinf/Dose: 673
  Clast: 0.38 ng/mL
  Cmax/Dose: 212
  Tlast: 45 h
  kel: 0.0529 h⁻¹
[3]; [7]
  % AUCextrap: 3.1%
  AUCinf/Dose: 701
  Clast: 0.24 ng/mL
  Cmax/Dose: 251
  Tlast: 48 h
  kel: 0.0488 h⁻¹
[3]; [8]
  % AUCextrap: 3.3%
  AUCinf/Dose: 619
  Clast: 0.48 ng/mL
  Cmax/Dose: 234
  Tlast: 48 h
  kel: 0.0459 h⁻¹
[3]; [9]
  % AUCextrap: 5.2%
  AUCinf/Dose: 720
  Clast: 1.9 ng/mL
  Cmax/Dose: 232
  Tlast: 48 h
  kel: 0.0456 h⁻¹
[3]; 5 mg
  Cmax: 5.8 ng/mL
  Tmax: 0.75 h
  concentration at 24 h: 0.14 ng/mL
[3]; 5 mg, AUC0-24, healthy males, single oral 5 mg
  AUC(0-t): 21.6 ng·h/mL
[3]; 5 mg, AUClast, healthy males, single oral 5 mg
  AUC(0-t): 16.5 ng·h/mL
[3]; 10 mg
  AUC(0-inf): 102 ng·h/mL
  CL/F: 19.7 mL/min/kg
  Cmax: 20.8 ng/mL
  Tmax: 1.17 h
  Vd/F: 33.3 L/kg
  concentration at 24 h: 0.37 ng/mL
  half-life: 18.9 h
[3]; 10 mg, AUC0-24, healthy males, single oral 10 mg
  AUC(0-t): 63 ng·h/mL
[3]; 10 mg, AUC0-48, healthy males, single oral 10 mg
  AUC(0-t): 96 ng·h/mL
[3]; 10 mg, AUClast, healthy males, single oral 10 mg
  AUC(0-t): 69 ng·h/mL
[3]; 15 mg
  AUC(0-inf): 129 ng·h/mL
  CL/F: 30.2 mL/min/kg
  Cmax: 42.2 ng/mL
  Tmax: 0.88 h
  Vd/F: 33.7 L/kg
  concentration at 24 h: 1 ng/mL
  half-life: 13.3 h
[3]; 15 mg, AUC0-24, healthy males, single oral 15 mg
  AUC(0-t): 107 ng·h/mL
[3]; 15 mg, AUC0-48, healthy males, single oral 15 mg
  AUC(0-t): 129 ng·h/mL
[3]; 15 mg, AUClast, healthy males, single oral 15 mg
  AUC(0-t): 122 ng·h/mL
[3]; 20 mg
  AUC(0-inf): 154 ng·h/mL
  CL/F: 26.5 mL/min/kg
  Cmax: 56.1 ng/mL
  Tmax: 0.75 h
  Vd/F: 32.9 L/kg
  concentration at 24 h: 0.74 ng/mL
  half-life: 14.4 h
[3]; 20 mg, AUC0-24, healthy males, single oral 20 mg
  AUC(0-t): 139 ng·h/mL
[3]; 20 mg, AUC0-48, healthy males, single oral 20 mg
  AUC(0-t): 149 ng·h/mL
[3]; 20 mg, AUClast, healthy males, single oral 20 mg
  AUC(0-t): 149 ng·h/mL
[3]; 40 mg
  AUC(0-inf): 321 ng·h/mL
  CL/F: 29.9 mL/min/kg
  Cmax: 123 ng/mL
  Tmax: 0.83 h
  Vd/F: 38.1 L/kg
  concentration at 24 h: 1.4 ng/mL
  half-life: 15.6 h
[3]; 40 mg, AUC0-24, healthy males, single oral 40 mg
  AUC(0-t): 291 ng·h/mL
[3]; 40 mg, AUC0-48, healthy males, single oral 40 mg
  AUC(0-t): 309 ng·h/mL
[3]; 40 mg, AUClast, healthy males, single oral 40 mg
  AUC(0-t): 309 ng·h/mL
[3]; 80 mg
  AUC(0-inf): 772 ng·h/mL
  CL/F: 25.3 mL/min/kg
  Cmax: 245 ng/mL
  Tmax: 1 h
  Vd/F: 33.5 L/kg
  concentration at 24 h: 5.5 ng/mL
  half-life: 15.3 h
[3]; 80 mg, AUC0-24, healthy males, single oral 80 mg
  AUC(0-t): 647 ng·h/mL
[3]; 80 mg, AUC0-48, healthy males, single oral 80 mg
  AUC(0-t): 730 ng·h/mL
[3]; 80 mg, AUClast, healthy males, single oral 80 mg
  AUC(0-t): 730 ng·h/mL
